Experimental data: PubChem BioAssay (NCI)
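How tested: cells in 96-well plates exposed to compound for 48 hours at five concentrations. The concentration for full growth arrest is given as TGI.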

Columns and labels:
Experiment in all cases: NCI anticancer screen, dose series, 48 h
SF-268 CNS = system: SF-268 CNS
LOX IMVI melanoma = system: LOX IMVI melanoma
K-562 leukemia = system: K-562 leukemia
HOP-62 NSCLC = system: HOP-62 NSCLC
COLO 205 colon = system: COLO 205 colon
UO-31 renal = system: UO-31 renal
786-0 renal = system: 786-0 renal
HOP-92 NSCLC = system: HOP-92 NSCLC
NCI-H226 lung = system: NCI-H226 lung
IGROV1 ovarian = system: IGROV1 ovarian
NCI-H23 lung = system: NCI-H23 lung
M19-MEL melanoma = system: M19-MEL melanoma
RXF 393 renal = system: RXF 393 renal
SK-MEL-2 melanoma = system: SK-MEL-2 melanoma
KM12 colon = system: KM12 colon
MALME-3M melanoma = system: MALME-3M melanoma
EKVX NSCLC = system: EKVX NSCLC
SW-620 colon = system: SW-620 colon
OVCAR-8 ovarian = system: OVCAR-8 ovarian
SN12C renal = system: SN12C renal
SNB-75 CNS = system: SNB-75 CNS
OVCAR-5 ovarian = system: OVCAR-5 ovarian
SF-295 CNS = system: SF-295 CNS
NCI-H522 lung = system: NCI-H522 lung
SK-OV-3 ovarian = system: SK-OV-3 ovarian
NCI-H460 lung = system: NCI-H460 lung
OVCAR-3 ovarian = system: OVCAR-3 ovarian
A549 NSCLC = system: A549 NSCLC
HL-60(TB) leukemia = system: HL-60(TB) leukemia
SNB-19 CNS = system: SNB-19 CNS
DMS 273 small cell lung = system: DMS 273 small cell lung
HT29 colon = system: HT29 colon
TK-10 renal = system: TK-10 renal
UACC-257 melanoma = system: UACC-257 melanoma
SF-539 CNS = system: SF-539 CNS
MOLT-4 leukemia = system: MOLT-4 leukemia
SNB-78 CNS = system: SNB-78 CNS
OVCAR-4 ovarian = system: OVCAR-4 ovarian
HCT-15 colon = system: HCT-15 colon
XF 498 CNS = system: XF 498 CNS
RPMI-8226 leukemia = system: RPMI-8226 leukemia
CCRF-CEM leukemia = system: CCRF-CEM leukemia
SK-MEL-28 melanoma = system: SK-MEL-28 melanoma
LXFL 529 NSCLC = system: LXFL 529 NSCLC
DMS 114 small cell lung = system: DMS 114 small cell lung
KM20L2 colon = system: KM20L2 colon
M14 melanoma = system: M14 melanoma
CAKI-1 renal = system: CAKI-1 renal
A498 renal = system: A498 renal
ACHN renal = system: ACHN renal
UACC-62 melanoma = system: UACC-62 melanoma
HCC-2998 colon = system: HCC-2998 colon
DLD-1 colon = system: DLD-1 colon
SK-MEL-5 melanoma = system: SK-MEL-5 melanoma
HCT-116 colon = system: HCT-116 colon
SR leukemia = system: SR leukemia
HOP-18 NSCLC = system: HOP-18 NSCLC

Measured: TGI

CC/C=C1\N=C(c2ccc(Cl)cc2)OC1=O
> 100 µM: SF-268 CNS | LOX IMVI melanoma | K-562 leukemia | HOP-62 NSCLC | COLO 205 colon | UO-31 renal | 786-0 renal | HOP-92 NSCLC | NCI-H226 lung | IGROV1 ovarian | NCI-H23 lung | M19-MEL melanoma | RXF 393 renal | SK-MEL-2 melanoma | KM12 colon | MALME-3M melanoma | EKVX NSCLC | SW-620 colon | OVCAR-8 ovarian | SN12C renal | SNB-75 CNS | OVCAR-5 ovarian | SF-295 CNS | NCI-H522 lung | SK-OV-3 ovarian | NCI-H460 lung | OVCAR-3 ovarian | A549 NSCLC | HL-60(TB) leukemia | SNB-19 CNS | DMS 273 small cell lung | HT29 colon | TK-10 renal | UACC-257 melanoma | SF-539 CNS | MOLT-4 leukemia | SNB-78 CNS | OVCAR-4 ovarian | HCT-15 colon | XF 498 CNS | RPMI-8226 leukemia | CCRF-CEM leukemia | SK-MEL-28 melanoma | LXFL 529 NSCLC | DMS 114 small cell lung | KM20L2 colon | M14 melanoma | CAKI-1 renal | A498 renal | ACHN renal | UACC-62 melanoma | HCC-2998 colon | DLD-1 colon

COC(OC)c1cccc2c1C(=O)CCC1(O)c3ccccc3C1C2 (centres undefined)
69.8 µM: RPMI-8226 leukemia
> 100 µM: SF-268 CNS | LOX IMVI melanoma | K-562 leukemia | SK-MEL-5 melanoma | HOP-62 NSCLC | COLO 205 colon | UO-31 renal | 786-0 renal | NCI-H226 lung | IGROV1 ovarian | NCI-H23 lung | M19-MEL melanoma | SK-MEL-2 melanoma | KM12 colon | MALME-3M melanoma | EKVX NSCLC | SW-620 colon | HCT-116 colon | OVCAR-8 ovarian | SN12C renal | SNB-75 CNS | OVCAR-5 ovarian | SF-295 CNS | NCI-H522 lung | SK-OV-3 ovarian | SR leukemia | HOP-18 NSCLC | OVCAR-3 ovarian | A549 NSCLC | HL-60(TB) leukemia | SNB-19 CNS | DMS 273 small cell lung | HT29 colon | TK-10 renal | UACC-257 melanoma | SF-539 CNS | MOLT-4 leukemia | SNB-78 CNS | OVCAR-4 ovarian | HCT-15 colon | XF 498 CNS | CCRF-CEM leukemia | SK-MEL-28 melanoma | LXFL 529 NSCLC | DMS 114 small cell lung | M14 melanoma | UACC-62 melanoma | HCC-2998 colon | DLD-1 colon

O=C(CC1(O)C(=O)Nc2ccccc21)c1ccccc1Cl (centres undefined)
> 100 µM: SF-268 CNS | LOX IMVI melanoma | K-562 leukemia | SK-MEL-5 melanoma | COLO 205 colon | UO-31 renal | 786-0 renal | HOP-92 NSCLC | NCI-H226 lung | IGROV1 ovarian | NCI-H23 lung | M19-MEL melanoma | RXF 393 renal | SK-MEL-2 melanoma | MALME-3M melanoma | EKVX NSCLC | SW-620 colon | HCT-116 colon | OVCAR-8 ovarian | SN12C renal | SNB-75 CNS | OVCAR-5 ovarian | SF-295 CNS | NCI-H522 lung | SK-OV-3 ovarian | NCI-H460 lung | OVCAR-3 ovarian | A549 NSCLC | HL-60(TB) leukemia | SNB-19 CNS | DMS 273 small cell lung | HT29 colon | TK-10 renal | UACC-257 melanoma | SF-539 CNS | MOLT-4 leukemia | SNB-78 CNS | OVCAR-4 ovarian | HCT-15 colon | XF 498 CNS | RPMI-8226 leukemia | SK-MEL-28 melanoma | LXFL 529 NSCLC | DMS 114 small cell lung | KM20L2 colon | M14 melanoma | CAKI-1 renal | A498 renal | ACHN renal | UACC-62 melanoma | DLD-1 colon
